Reference: ChEMBL document CHEMBL1146673, “Inhibition of ICAM-1/LFA-1-mediated heterotypic T-cell adhesion to epithelial cells: design of ICAM-1 cyclic peptides” (2004)

System: T-cell
Experiment: Ability of compound to inhibit the T-cell adhesion at 200 uM in cell adhesion assay
Format: functional, Homo sapiens

Question: Which T-cell binding does the source give for H-AILPRG-OH here?
Answer: Its T-cell binding is 53%.

Question: How did the T-cell binding turn out when H-ILPRGG-OH was run?
Answer: Its T-cell binding is 46%.

Question: For H-KVILPR-OH, which T-cell binding is on record?
Answer: Its T-cell binding is 49%.

Question: Which T-cell binding does the source give for H-LPRGGS-OH here?
Answer: Its T-cell binding is 37%.

Question: Which T-cell binding does the source give for H-PRGGSV-OH here?
Answer: The T-cell binding was 25%.

Question: H-PSKVIL-OH was tested. Which T-cell binding did it give?
Answer: Its T-cell binding is 44%.

Question: For H-VALPRG-OH, which T-cell binding is on record?
Answer: The T-cell binding was 71%.

Question: Which T-cell binding does the source give for H-VIAPRG-OH here?
Answer: The T-cell binding was 46%.

Question: Which T-cell binding does the source give for H-VILARG-OH here?
Answer: The T-cell binding was 62%.

Question: With H-VILPRA-OH as the substance, how does the T-cell binding read?
Answer: Its T-cell binding is 68%.

Question: Which T-cell binding does the source give for H-VILPRG-OH here?
Answer: Its T-cell binding is 32%.
